From US10766895B2 (Zhejiang Huahai Pharmaceutical Co., Ltd., priority 2015, dated 2020)

What was measured:
[1] = Comparative Example 1: heating palbociclib free base in n-butanol and anisole (method of WO2014128588A1); format: physicochemical; settings: n-butanol (16 ml/g) and anisole (24 ml/g), heated to 95-100° C.
From the text: The seed crystal of crystal form A was required to be added into the reaction system to obtain a crystal form A of palbociclib free base.

[2] = all of organic solvents; cited from earlier work

SMILES: CC(=O)c1c(C)c2cnc(Nc3ccc(N4CCNCC4)cn3)nc2n(C2CCCC2)c1=O [palbociclib free base, 6-acetyl-8-cyclopentyl-5-methyl-2-[[5-(piperazine-1-yl)pyridine-2-yl]amino]-8H-pyrido[2,3-D]pyrimidine-7-ketone]
- Solubility on heating [1]: remained insoluble
- Solubility in organic solvents [2]: very poor solubility
